Laboratory results as given in patent US6949648B2, “Condensed pyrazole derivatives, process for producing the same and use thereof” (Takeda Pharmaceutical Company Limited, priority 2000, dated 2005).
Where a name gives a salt, the structure may show the parent alone.

Legend:
[1] = tested on: OVA-specific IgG2a (Th1 type); test: Effect on antibody production of ovalbumin-sensitized mice: IgG2a; assay type: in vivo, BALB/c mouse; conditions: Mus musculus, po, 264 h; 30 mg/kg b.w. orally, 5 days a week during 9-day period; serum 11 days after first sensitization, ELISA; read-out: Suppression Rate (%) IgG2a
Method: (§1) Effect on Antibody Production of Mice Sensitized by Controlled-Release Ovalbumin
(§2) A male BALB/c mouse (Charles River) of 7 weeks old was sensitized by intraabdominal administration, twice at an interval of a week, of a mixture of 10 μg/mouse of ovalbumin (OVA; albumin chicken egg grade III; Sigma Chemical) and 1 mg of aluminum hydroxide hydrate gel suspension (Alum; LSL Co. LTD.). After 11 days from the first sensitization, blood was collected from beneath eye under ether anesthesia, and the amount of OVA-specific IgE, IgG1 (Th2 type) and IgG2a (Th1 type) antibodies in the serum were determined by the ELISA method. A sample compound (30 mg/kg b.w.) was suspended in 0.4 ml of methylcellulose (MC), and the suspension was orally administered, 5 days a week during the 9-day period from the initiation day of sensitization to the day before the day of blood sample collection (1 Group, n=8 to 10).

[2] = tested on: OVA-specific IgE; test: Effect on antibody production of ovalbumin-sensitized mice: IgE; assay type: in vivo, BALB/c mouse; conditions: Mus musculus, po, 264 h; 30 mg/kg b.w. orally, 5 days a week during 9-day period; serum 11 days after first sensitization, ELISA; read-out: Suppression Rate (%) IgE
Method: as §1, §2

Compound | melting point [°C] | inhibition in vivo at 30 mg/kg [1] [%] | inhibition in vivo at 30 mg/kg [2] [%]
Cc1nn(-c2cccnc2)c2nc3ccccc3c(N)c12 [Example 1-63, 3-Methyl-1-(3-pyridinyl)-1H-pyrazolo[3,4-b]quinolin-4-ylamine dihydrochloride] |  | -5.8 | 25.2
Cl.Nc1c2ccccc2nc2c1cnn2-c1ccccn1 [Example 1-67, 1-(2-Pyridinyl)-1H-pyrazolo[3,4-b]quinolin-4-ylamine hydrochloride] | 312 to 315 | -30.7 | 10.5
CCOC(=O)c1cnc2c(c(C)nn2-c2ccccn2)c1O [Example 1-1, Ethyl 4-hydroxy-3-methyl-1-(2-pyridinyl)-1H-pyrazolo[3,4-b]pyridine-5-carboxylate] | 166 to 169 | 17.8 | 46.3
Cc1nn(-c2ccccn2)c2nc(-c3ccccc3)cc(O)c12 [Example 1-22, 3-Methyl-6-phenyl-1-(2-pyridinyl)-1H-pyrazolo[3,4-b]pyridin-4-ol] | 198 to 199 | -2.1 | 14
Cc1nn(-c2ccccn2)c2nc(O)c(Cc3ccccc3)c(C)c12 [Example 1-25, 5-Benzyl-3,4-dimethyl-1-(2-pyridinyl)-1H-pyrazolo[3,4-b]pyridin-6-ol] | 208 to 209 | 16.5 | 33.9
Cc1nn(-c2ccccn2)c2[nH]c3ccc(F)cc3c(=O)c12 [Example 1-53, 6-Fluoro-3-methyl-1-(2-pyridinyl)-1,9-dihydro-4H-pyrazolo[3,4-b]quinolin-4-one] |  | 36.1 | 8
Cc1ccc(-n2nc(C)c3c(N)c4ccccc4nc32)nc1 [Example 1-54, 3-Methyl-1-(5-methyl-2-pyridinyl)-1H-pyrazolo[3,4-b]quinolin-4-ylamine] |  | -148 | 17.6
Cc1nn(Cc2ccccn2)c2nc3ccccc3c(N)c12 [Example 1-68, 3-Methyl-1-(2-pyridinylmethyl)-1H-pyrazolo[3,4-b]quinolin-4-ylamine] |  | 31.7 | 31.6
Cc1nn(-c2ccccn2)c2nccc(O)c12 [Example 1-3, 3-Methyl-1-(2-pyridinyl)-1H-pyrazolo[3,4-b]pyridin-4-ol] |  | -39.5 | 19
Cc1nn(-c2ccccn2)c2nc3ccccc3c(N(C)C)c12 [Example 1-38, N,N-Dimethyl-N-[3-methyl-1-(2-pyridinyl)-1H-pyrazolo[3,4-b]quinolin-4-yl]amine] | 98 to 101 | -122 | 36.1
Cc1nn(-c2ccccn2)c2nc3ccc(F)cc3c(Cl)c12 [Example 1-52, 4-Chloro-6-fluoro-3-methyl-1-(2-pyridinyl)-1H-pyrazolo[3,4-b]quinoline] |  | 39.9 | 41.1
Cc1ccc(-n2nc(C)c3c(=O)c4ccccc4[nH]c32)nc1 [Example 1-55, 3-Methyl-1-(5-methyl-2-pyridinyl)-1,9-dihydro-4H-pyrazolo[3,4-b]quinolin-4-one hydrochloride] |  | 13.7 | 11.7
Cc1nn(-c2ccccn2)c2ncc(C(=O)O)c(O)c12 [Example 1-2, 4-Hydroxy-3-methyl-1-(2-pyridinyl)-1H-pyrazolo[3,4-b]pyridine-5-carboxylic acid] |  | -67.9 | 29.2
CCOC(=O)c1cnc2c(c(C)nn2-c2ccccn2)c1N [Example 1-31, Ethyl 4-amino-3-methyl-1-(2-pyridinyl)-1H-pyrazolo[3,4-b]pyridine-5-carboxylate] | 147 to 149 |  | 
Cc1nn(-c2ncccn2)c2nc3ccccc3c(N)c12.Cl | 287 to 290 |  | 
Cc1nn(-c2ccccn2)c2ncc(C(=O)Nc3ccccc3F)c(O)c12 [Example 1-12, N-(2-Fluorophenyl)-4-hydroxy-3-methyl-1-(2-pyridinyl)-1H-pyrazolo[3,4-b]pyridine-5-carboxamide] | > 300 |  | 

The next lines start with results.

melting point [°C] | Compound | inhibition in vivo at 30 mg/kg [1] [%] | inhibition in vivo at 30 mg/kg [2] [%]
226 to 228 | Cc1nn(-c2ccncc2)c2nc3cc(F)c(F)cc3c(Cl)c12 [Example 2-204, 4-Chloro-6,7-difluoro-3-methyl-1-(4-pyridinyl)-1H-pyrazolo[3,4-b]quinoline] |  | 
87 to 88 | Cc1nn(-c2ccccn2)c2nc3ccccc3c(CC(C)C)c12 [Example 2-105, 4-Isobutyl-3-methyl-1-(2-pyridinyl)-1H-pyrazolo[3,4-b]quinoline] |  | 
185 to 187 | Cc1nn(-c2ccccn2)c2nc3ccc(F)cc3c(Cl)c12 [Example 2-80, 4-Chloro-6-fluoro-3-methyl-1-(2-pyridinyl)-1H-pyrazolo[3,4-b]quinoline] |  | 
269 to 272 | Cc1nn(Cc2ccccn2)c2[nH]c3ccccc3c(=O)c12 [Example 2-189, 3-Methyl-1-(2-pyridinylmethyl)-1,9-dihydro-4H-pyrazolo[3,4-b]quinolin-4-one] |  | 
240 to 241 | COC(=O)Cc1nn(-c2ccccn2)c2[nH]c3ccccc3c(=O)c12 [Example 2-176, Methyl 2-[4-oxo-1-(2-pyridinyl)-4,9-dihydro-1H-pyrazolo[3,4-b]quinolin-3-yl]acetate] |  | 
198 to 200 | CCCn1c2cc(F)c(F)cc2c(=O)c2c(C)nn(-c3ccccn3)c21 [Example 2-93, 6,7-Difluoro-3-methyl-9-propyl-1-(2-pyridinyl)-1,9-dihydro-4H-pyrazolo[3,4-b]quinolin-4-one] |  | 
240 to 242 | Cc1nn(-c2ccccn2)c2nc3ccc(F)c(F)c3c(Cl)c12 [Example 2-88, 4-Chloro-5,6-difluoro-3-methyl-1-(2-pyridinyl)-1H-pyrazolo[3,4-b]quinoline] |  | 
182 to 185 | Cc1cccnc1-n1nc(C)c2c(Cl)c3cccc(C)c3nc21 [Example 2-133, 4-Chloro-3,8-dimethyl-1-(3-methyl-2-pyridinyl)-1H-pyrazolo[3,4-b]quinoline] |  | 
143 to 144 | CC(C)c1nn(-c2ccccn2)c2[nH]c3ccccc3c(=O)c12 [Example 2-173, 3-Isopropyl-1-(2-pyridinyl)-1,9-dihydro-4H-pyrazolo[3,4-b]quinolin-4-one] |  | 
257 to 260 | Cc1ccc(-n2nc(C)c3c(N)c4cccc(C)c4nc32)nc1 [Example 2-132, 3,8-Dimethyl-1-(5-methyl-2-pyridinyl)-1H-pyrazolo[3,4-b]quinolin-4-ylamine] |  | 
> 300 | Cc1nn(-c2ccccn2)c2[nH]c3cc(C(=O)O)ccc3c(=O)c12 [Example 2-68, 3-Methyl-4-oxo-1-(2-pyridinyl)-4,9-dihydro-1H-pyrazolo[3,4-b]quinoline-7-carboxylic acid] |  | 
273 to 276 | Cc1cccc2c(N)c3c(C)nn(-c4ccc5ccccc5n4)c3nc12 [Example 2-153, 3,8-Dimethyl-1-(2-quinolinyl)-1H-pyrazolo[3,4-b]quinolin-4-ylamine] |  | 
160 to 161 | Cc1cccnc1-n1nc(C)c2c(Cl)c3ccccc3nc21 [Example 2-118, 4-Chloro-3-methyl-1-(3-methyl-2-pyridinyl)-1H-pyrazolo[3,4-b]quinoline] |  | 
